# Measurements: patent publication US8222274B2, “Pyrrole derivative or salt thereof” (Astellas Pharma Inc., priority 2006, dated 2012)
# How the values were obtained:
# human 5-HT2B receptor = target: T1, human 5-HT2B receptor (Homo sapiens, UniProt P41595); test: 5-HT2B receptor binding test; conditions: human 5-HT2B receptor expressing HEK293-EBNA cell membrane, [3H] Mesulergine
# T1 construct: expressed in transfected cells; host or cells: HEK293-EBNA cells (membrane preparation)
# Protocol: Test Method (1) 5-HT2B Receptor Binding Test
# (i) Preparation of Membrane Sample
# (§1) Cultured human 5-HT2B receptor expressing HEK293-EBNA cells were washed with a phosphate buffer (PBS)(−). The cells were peeled off with a scraper in the presence of PBS(−), and the cells were recovered by centrifugation (1,000 rpm, 10 minutes, 4° C.). In the presence of 5 mM tris-hydrochloric acid (Tris-HCl) (pH 7.4) buffer, homogenized using a homogenizer (registered trademark: Polytron (PTA 10-TS)), and centrifugation-treated (40,000×g, 10 minutes, 4° C.). In the presence of 50 mM Tris-HCl (pH 7.4) buffer, suspended using Glass-Teflon (registered trademark) homogenizer. By carrying out centrifugation treatment (40,000×g, 10 minutes, 4° C.), suspended in 50 mM Tris-HCl (pH 7.4) and stored at −80° C.
# (§2) (ii) Receptor Binding Test
# A total volume of 500 μl containing 50 mM Tris-HCl, a 4 mM CaCl2 (pH 7.4) buffer, a human 5-HT2B receptor expressing HEK293-EBNA cell membrane preparation and a radio-ligand [^3H] Mesulergine (3.1 TBq/mmol) was incubated at 25° C. for 1 hour. The compound was dissolved in 100% dimethyl sulfoxide (DMSO) and diluted to respective concentrations. Binding quantity in the presence of 1 μM ritanserin was regarded as the nonspecific binding, and a result of subtracting the nonspecific binding quantity from the total binding quantity was regarded as the specific binding quantity. After adding 4 ml of 50 mM Tris-HCl buffer (pH 7.4) and filtering under a reduced pressure using a GF/B glass filter, the filter was washed (4 ml×3) with the same buffer. By soaking the glass filter in 5 ml of a liquid scintillator (trade name: Aquasol-2), the radioactivity quantity was measured using a liquid scintillation counter. […] Ex represents example compound number which is described later.
# human 5-HT7 receptor = target: T2, human 5-HT7 receptor (Homo sapiens, UniProt P34969); test: 5-HT7 receptor binding test; conditions: human 5-HT7 receptor expressing CHO cell membrane, [3H] 5-HT
# T2 construct: expressed in transfected cells; host or cells: CHO cells (membrane preparation)
# Protocol: Test Method (2) 5-HT7 Receptor Binding Test (i) Preparation of Membrane Sample
# as §1, with “5-HT7” for “5-HT2B”, “CHO” for “HEK293-EBNA”, “PBS(−).” for “a phosphate buffer (PBS)(−).”, “Tris-HCl” for “tris-hydrochloric acid (Tris-HCl)”
# as §2
# A total volume of 500 μl containing 50 mM Tris-HCl, a 4 mM CaCl2 (pH 7.4) buffer, a human 5-HT7 receptor expressing CHO cell membrane preparation and a radio-ligand [^3H] 5-HT (3.40 TBq/mmol) was incubated at 25° C. for 1 hour. The compound was dissolved in 100% DMSO and diluted to respective concentrations. Binding quantity in the presence of 10 μM metergoline was regarded as the nonspecific binding, and a result of subtracting the nonspecific binding quantity from the total binding quantity was regarded as the specific binding quantity. After adding 4 ml of 50 mM Tris-HCl buffer (pH 7.4) and filtering under a reduced pressure using a GF/B glass filter, the filter was washed (4 ml×3) with the same buffer. By soaking the glass filter in 5 ml of a liquid scintillator (trade name: Aquasol-2), the radioactivity quantity was measured using a liquid scintillation counter.
# male Wistar rats = test: Defecation suppressing effect at the time of restraint stress loading (rat restraint stress defecation model); type: in vivo; conditions: for suppressing action on defecation / defecation-suppressing action: rat restraint stress, faces excreted during 1 hour after stress loading; for suppressing action on defecation: starting from a dose of 1 mg/kg (p.o.); for number of faces excreted, difference in comparison with the non-administration group: rat restraint stress, 1, 3 or 10 mg/kg administration group, N=10; for defecation-suppressing action: even at a dose of 10 mg/kg p.o.
# Protocol: Test method (4) Defecation Suppressing Effect at the Time of Restraint Stress Loading
# The IBS-treating effect of the compound (I) of the present invention was evaluated using a test method in which the amount of excreted faces is measured by loading a restraint stress on rats (see “The Journal of Pharmacology Experimental Therapeutics”, (USA), 1992, vol. 261, p. 297-303).
# The agent to be tested was administered to male Wistar rats (body weight 250 to 320 g, 10 animals for each group), and a restraint stress was loaded 30 minutes thereafter. A restraint cage (trade name: KN-468, 265 mm in width×95 mm in length×200 mm in height, Natsume Seisakusho, Tokyo) was used for the restraint stress loading, and the number of faces excreted during 1 hour after the stress loading was counted.
# 5-HT2B receptor = conditions: versus 5-HT1A, 5-HT1B, 5-HT2A, 5-HT2C, 5-HT3, 5-HT6, 5-HT7, α1, M1, D2 and the like; cited from earlier work
# T2 sequence (P34969 whole entry): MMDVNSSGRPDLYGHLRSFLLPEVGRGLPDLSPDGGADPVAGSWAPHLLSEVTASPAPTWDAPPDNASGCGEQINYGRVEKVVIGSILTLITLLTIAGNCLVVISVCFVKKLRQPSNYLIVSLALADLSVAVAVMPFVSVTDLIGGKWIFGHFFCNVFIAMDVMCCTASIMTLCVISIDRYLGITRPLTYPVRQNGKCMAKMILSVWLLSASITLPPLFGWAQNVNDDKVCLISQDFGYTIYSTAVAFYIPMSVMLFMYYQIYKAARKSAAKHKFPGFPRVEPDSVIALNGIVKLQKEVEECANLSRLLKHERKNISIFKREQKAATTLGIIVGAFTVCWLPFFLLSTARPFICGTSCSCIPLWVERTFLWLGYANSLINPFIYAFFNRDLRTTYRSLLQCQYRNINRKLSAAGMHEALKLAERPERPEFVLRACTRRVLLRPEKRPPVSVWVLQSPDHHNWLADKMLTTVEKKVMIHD
# T1 sequence (P41595 whole entry): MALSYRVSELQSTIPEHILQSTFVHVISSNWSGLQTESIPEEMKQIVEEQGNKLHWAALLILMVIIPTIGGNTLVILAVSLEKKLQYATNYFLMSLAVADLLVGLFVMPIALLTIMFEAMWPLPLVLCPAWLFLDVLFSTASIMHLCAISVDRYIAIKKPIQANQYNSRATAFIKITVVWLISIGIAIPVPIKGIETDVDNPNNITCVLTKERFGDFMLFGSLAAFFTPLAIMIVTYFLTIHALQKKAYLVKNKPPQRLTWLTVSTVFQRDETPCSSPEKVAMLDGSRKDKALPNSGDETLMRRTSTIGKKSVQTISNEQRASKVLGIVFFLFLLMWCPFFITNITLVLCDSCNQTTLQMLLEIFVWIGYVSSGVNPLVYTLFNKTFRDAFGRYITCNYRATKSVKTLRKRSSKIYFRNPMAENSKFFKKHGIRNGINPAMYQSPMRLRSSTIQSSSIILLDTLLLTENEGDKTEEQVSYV
Ki (human 5-HT2B receptor),Ki (human 5-HT7 receptor),SMILES,suppressing action on defecation (male Wistar rats),"number of faces excreted, difference in comparison with the non-administration group (male Wistar rats)",defecation-suppressing action (male Wistar rats),5-HT2B receptor-selective by a factor (5-HT2B receptor)
7.7 nM,1.1 nM,"Cc1c(C(=O)NCCN(C)C)cc(C(C)(C)C)n1CCc1ccc(F)cc1 [Example 2, 5-tert-butyl-N-[2-(dimethylamino)ethyl]-1-[2-(4-fluorophenyl)ethyl]-2-methyl-1H-pyrrole-3-carboxamide]",,,,
0.48 nM,1.3 nM,Cc1c(C(=O)N=C(N)N)cc(C2CCCC2)n1CCc1ccc(F)cc1 [Example 52],,,,
9.6 nM,28 nM,Cc1c(C(=O)N=C(N)N)cc(-c2ccccc2)n1Cc1ccco1 [Example 98],,,,
3.7 nM,1.5 nM,Cc1c(C(=O)N=C(N)N)c(C)n(CCc2ccc(F)cc2)c1C(C)(C)C [Example 142],,,,
12 nM,6.5 nM,Cc1c(C(=O)N[C@H]2CCN(C)C2)cc(C(C)(C)C)n1CCc1ccc(F)cc1 [Example 153],significant suppressing action,,,
2.1 nM,14 nM,Cc1c(C(=O)N[C@@H]2CCN(C)C2)cc(C(C)(C)C)n1CCc1ccc(F)cc1 [Example 154],significant suppressing action,,,
8.4 nM,5.3 nM,Cc1c(C(=O)NC[C@@H]2CCCN2C)cc(C(C)(C)C)n1CCc1ccc(F)cc1 [Example 161],significant suppressing action,,,
7.1 nM,4.1 nM,Cc1c(C(=O)NC[C@H]2CCCN2C)cc(C(C)(C)C)n1CCc1ccc(F)cc1 [Example 163],,,,
0.68 nM,11 nM,Cc1c(C(=O)NCCN(C)C)cc(-c2ccsc2)n1CCc1ccc(F)cc1 [Example 187],,,,
7.2 nM,1.8 nM,Cc1c(C(=O)NCCN(C)C)cc(Cc2ccc(F)cc2)n1CCc1ccc(F)cc1 [Example 196],,,,
7.5 nM,3.1 nM,Cc1c(C(=O)NCCN(C)C)cc(C(C)(C)C)n1OCc1ccc(F)cc1 [Example 211],,,,
2.3 nM,8.2 nM,Cc1c(C(=O)N[C@@H]2CCN(C)C2)c(C)n(CCc2ccc(F)cc2)c1C(C)(C)C [Example 217],,,,
9.2 nM,4.3 nM,Cc1c(C(=O)N[C@H]2CCN(C)C2)c(C)n(CCc2ccc(F)cc2)c1C(C)(C)C [Example 218],,,,
,,"CC(C)c1cc(-c2ccc(F)c3ccccc23)nc(N)n1 [RS-127445, 2-amino-4-(4-fluoronaphth-1-yl)-6-isopropylpyrimidine]",,Significant difference was not found,did not show defecation-suppressing action,≥ 1000 times
,,"CC1CCN(CC[C@H]2CCCN2S(=O)(=O)c2cccc(O)c2)CC1 [SB-269970, (R)-3-(2-(2-(4-methylpiperidin-1-yl)ethyl)pyrrolidine-1-sulfonyl)phenol]",,Significant difference was not found,did not show the defecation-suppressing action,
